Experimental findings from publication PMC10818931, “In Vitro Evaluation of Drug–Drug Interaction Potential of Epetraborole, a Novel Bacterial Leucyl-tRNA Synthetase Inhibitor” (Pharmaceuticals, 2024) are described below.

The nature of series [1]: Solubility in transport buffer. It counts as physicochemical. Conditions: aqueous buffer, read-out: Soluble up to.
Series [2] concerns the target T1, CYP2D6 (Homo sapiens, UniProt P10635).
T1 construct: Characterized, pooled, human hepatic microsomes from 15 individuals; tissue CellzDirect (Durham, NC, USA) or XenoTech LLC (Lenexa, KS, USA); host or cells: pooled human liver microsomes (15 donors)
Briefly: Automated time-dependent inhibition assay in HLM. It counts as in vitro ADME. Conditions: EBO 30 and 50 µM, 30 min preincubation with NADPH. How it is done:
The effect of EBO (30 and 50 µM) on time-dependent inhibition of CYP3A4 (testosterone and midazolam substrate) and CYP2D6 ([…] substrate) was determined using methodologies described previously. The Genesis robot (Tecan, Reading, UK) running Gemini software (https://www.tecan.com) was used to perform a fully automated TDI assay. The assay ran a preincubation (30 min at 37 °C, 1 mg/mL HLM incubation containing 1 mM NADPH and EBO) and a secondary incubation (containing 50 µL aliquot from the preincubation, 1 mM NADPH, and substrates for CYP3A4 and CYP2D6). At the end of the secondary incubation (15 min at 37 °C), an aliquot (50 µL) was removed and added to 100 µL of methanol to quench the reaction. Quenched samples were then chilled at −20 °C for 2 h, centrifuged at 2000× g for 15 min, and the supernatants were transferred to microtiter plates for LC/MS-MS analysis.

Series [3] can be described thus: Apparent permeability through Caco-2 cell monolayers. The conditions noted are these: human, Caco-2. How it is done:
(§1) ^14C-EBO permeability in Caco-2 Cells (MDR1/Protein Glycoprotein or P-gp) was determined using methodologies described previously. The apparent permeability of ^14C-EBO was determined in both the apical to basolateral and the basolateral to apical directions, in triplicate, at final concentrations of 1, 10, and 100 μM. Cell monolayers were incubated with ^14C-EBO at 37 °C for 1, 2, 3, and 4 h. The transepithelial electrical resistance (TEER) values of the monolayers prior to and following each experiment were measured to confirm the integrity of the Caco-2 cell monolayers. The apparent permeability of ^14C-EBO (at a final concentration of 10 μM) was determined in both the apical to basolateral and basolateral to apical directions under the same conditions as previously described in the presence of P-gp inhibitors cyclosporine A (10 μM) and verapamil (100 μM) in the donor compartment.
Background: Caco-2 monolayers are a common model of the intestinal barrier.

Series [4] has as its system Caco-2 cell monolayers. Described as above. The conditions noted are these: in vitro. As for the experimental part:
as §1

Series [5] has as its target T2, MATE2K (Homo sapiens, UniProt Q86VL8).
T2 construct: host or cells: MDCK
Put plainly: Substrate potential in transporter-transfected MDCK cells. It counts as in vitro ADME. As for the experimental part:
(§2) The uptake of a probe substrate of each transporter was conducted in parallel with the test article in separate wells of the same batch of vector control and transporter-transfected cells. Cells were incubated at 37 °C with 5% CO2 with 500 μL of dosing solution for different periods of time.

For series [6], the target named is T3, OCT2 (Homo sapiens, UniProt O15244).
T3 construct: host or cells: MDCK
T3 sequence (O15244 1-555): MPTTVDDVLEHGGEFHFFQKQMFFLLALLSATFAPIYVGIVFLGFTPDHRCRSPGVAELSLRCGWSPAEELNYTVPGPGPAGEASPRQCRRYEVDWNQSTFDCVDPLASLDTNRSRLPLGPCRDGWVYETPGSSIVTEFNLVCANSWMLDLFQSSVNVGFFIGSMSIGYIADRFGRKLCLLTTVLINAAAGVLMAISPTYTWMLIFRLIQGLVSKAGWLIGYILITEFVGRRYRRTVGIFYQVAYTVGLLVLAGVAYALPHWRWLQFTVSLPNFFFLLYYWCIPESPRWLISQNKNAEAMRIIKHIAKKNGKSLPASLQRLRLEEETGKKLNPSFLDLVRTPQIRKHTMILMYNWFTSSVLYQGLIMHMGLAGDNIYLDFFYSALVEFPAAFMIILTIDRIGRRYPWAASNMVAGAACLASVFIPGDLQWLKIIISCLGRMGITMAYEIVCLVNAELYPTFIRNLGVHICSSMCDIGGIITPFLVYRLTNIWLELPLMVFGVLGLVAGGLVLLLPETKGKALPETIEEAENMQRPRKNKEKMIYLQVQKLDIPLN
The series is described as above. The class given is in vitro ADME. How it is done: as §2

The target of series [7] is T4, OATP1B3 (Homo sapiens, UniProt Q9NPD5).
T4 construct: host or cells: MDCK
T4 sequence (Q9NPD5 1-702): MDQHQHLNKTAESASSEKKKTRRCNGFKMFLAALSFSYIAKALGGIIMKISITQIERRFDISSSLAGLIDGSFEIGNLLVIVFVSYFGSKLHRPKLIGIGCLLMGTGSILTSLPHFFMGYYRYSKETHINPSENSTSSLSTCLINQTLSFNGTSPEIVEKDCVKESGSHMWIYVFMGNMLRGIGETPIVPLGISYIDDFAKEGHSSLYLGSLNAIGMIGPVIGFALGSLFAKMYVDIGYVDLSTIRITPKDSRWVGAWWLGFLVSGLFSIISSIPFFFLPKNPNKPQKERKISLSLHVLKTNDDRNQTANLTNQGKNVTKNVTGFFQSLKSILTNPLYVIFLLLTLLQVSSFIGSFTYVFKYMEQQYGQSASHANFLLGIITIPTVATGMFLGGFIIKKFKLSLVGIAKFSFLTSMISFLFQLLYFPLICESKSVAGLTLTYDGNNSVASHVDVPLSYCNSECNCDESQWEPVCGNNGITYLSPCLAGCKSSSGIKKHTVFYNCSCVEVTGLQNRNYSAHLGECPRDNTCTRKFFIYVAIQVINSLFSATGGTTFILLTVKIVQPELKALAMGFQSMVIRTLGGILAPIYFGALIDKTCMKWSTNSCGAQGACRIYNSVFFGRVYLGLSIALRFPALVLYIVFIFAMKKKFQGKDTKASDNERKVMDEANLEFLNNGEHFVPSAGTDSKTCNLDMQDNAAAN
The series is described as above. It counts as in vitro ADME. As for the experimental part:
as §2

A short description of series [8]: Solubility in hepatocyte incubation medium. It counts as physicochemical. Conditions: aqueous buffer, read-out: Soluble in hepatocyte incubation medium at.

Converted amounts (≈) assume the structure as drawn.

T2 sequence (Q86VL8 1-566 isoform Q86VL8-3): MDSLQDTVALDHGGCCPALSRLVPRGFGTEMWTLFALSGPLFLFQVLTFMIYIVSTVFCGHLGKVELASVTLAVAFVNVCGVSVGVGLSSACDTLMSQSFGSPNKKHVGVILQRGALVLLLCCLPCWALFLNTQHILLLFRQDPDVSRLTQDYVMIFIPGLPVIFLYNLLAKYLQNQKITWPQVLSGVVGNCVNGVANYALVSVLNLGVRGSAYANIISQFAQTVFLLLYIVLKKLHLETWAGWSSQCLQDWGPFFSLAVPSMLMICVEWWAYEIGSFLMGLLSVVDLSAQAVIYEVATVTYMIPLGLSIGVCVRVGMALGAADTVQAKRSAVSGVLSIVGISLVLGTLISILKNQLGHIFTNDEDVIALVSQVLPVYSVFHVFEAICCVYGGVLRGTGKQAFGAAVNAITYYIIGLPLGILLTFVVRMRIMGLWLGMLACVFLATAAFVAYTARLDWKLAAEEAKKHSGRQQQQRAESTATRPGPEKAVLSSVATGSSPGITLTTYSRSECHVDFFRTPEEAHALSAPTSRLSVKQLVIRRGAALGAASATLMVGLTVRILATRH
T1 sequence (P10635 whole entry): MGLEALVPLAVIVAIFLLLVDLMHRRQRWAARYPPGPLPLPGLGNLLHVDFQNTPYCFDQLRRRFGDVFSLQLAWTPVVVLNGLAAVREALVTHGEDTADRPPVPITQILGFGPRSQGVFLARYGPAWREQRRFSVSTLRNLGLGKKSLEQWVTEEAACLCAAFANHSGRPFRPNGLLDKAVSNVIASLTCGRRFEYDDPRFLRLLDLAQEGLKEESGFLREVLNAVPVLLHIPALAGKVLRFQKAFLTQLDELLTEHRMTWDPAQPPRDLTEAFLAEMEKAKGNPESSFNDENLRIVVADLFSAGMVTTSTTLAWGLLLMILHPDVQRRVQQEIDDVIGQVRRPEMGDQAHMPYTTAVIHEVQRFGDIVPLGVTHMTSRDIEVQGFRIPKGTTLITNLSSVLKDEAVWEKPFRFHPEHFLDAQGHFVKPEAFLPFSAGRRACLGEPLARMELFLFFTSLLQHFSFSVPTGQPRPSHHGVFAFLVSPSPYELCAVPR

Regarding `NC[C@H]1OB(O)c2c(OCCCO)cccc21` [EBO, Epetraborole], the solubility in series [1] (transport buffer pH 7.4) turned out to be 17000 µM (≈ 4030 µg/mL); in series [1] (transport buffer pH 8.5), 100 µM (≈ 23.7 µg/mL); in series [8], 20 mM (≈ 4740 µg/mL). Besides, the Time-dependent inhibition entry in series [2] is reported as “No time-dependent inhibition”. In series [3], the Papp A→B is at most 0.31 ×10⁻⁶ cm/s. The Papp B→A in series [3] was at most 0.35 ×10⁻⁶ cm/s. For the same molecule, in series [4], the “Permeability (in words)” value is reported as “low permeability”. Further, the Influx ratio is recorded as under 2 in series [5], 3.44 in series [6] (5 µM) and under 2 in series [7]. Besides, the “as a Substrate” value in series [5] is “No”; in series [6], “could potentially be a substrate and Yes”; in series [7], “No”.
On to `NC[C@H]1OB(O)c2c(OCCC(=O)O)cccc21` [M3], for which the solubility is 250 µM (≈ 62.8 µg/mL) in series [1] (transport buffer pH 7.4), 250 µM (≈ 62.8 µg/mL) in series [1] (transport buffer pH 8.5) and 0.25 mM (≈ 62.8 µg/mL) in series [8]. In addition, the Influx ratio in series [5] and in series [7] was under 2 throughout. The “as a Substrate” value in series [5] was “No”; in series [6], “not a substrate and No”; in series [7], “No”.

As a reminder, the Papp A→B is how fast a substance crosses the layer from the apical side. A word on the Papp B→A: it is the apparent permeability from the basolateral to the apical side of a cell layer.
